system: vasculature; experiment: not given; conditions: administered at the MTD; cited from earlier work

In the case of `CC(=O)O[C@@]12CO[C@@H]1C[C@H](O)[C@@]1(C)C(=O)[C@H](O)C3=C(C)[C@@H](OC(=O)[C@H](O)[C@@H](NC(=O)OC(C)(C)C)c4ccccc4)C[C@@](O)([C@@H](OC(=O)c4ccccc4)[C@H]21)C3(C)C` [docetaxel], the vascular-damaging activity is given as “no vascular-damaging activity”.

system: tumour vasculature in CaNT tumour-bearing mice; experiment: Activity against tumour vasculature measured by fluorescent dye (Hoechst 33342 functional vascular volume); type: in vivo; conditions: 50 mg/kg i.p., 24 h after drug treatment, compared to control
Source text: Activity Against Tumour Vasculature Measured by Fluorescent Dye.
One minute later, animals were killed and tumours excised and frozen; 10 μm sections were cut at 3 different levels and observed under UV illumination using an Olympus microscope equipped with epifluorescence. […] All estimates were based on counting a minimum of 100 fields from sections cut at the 3 different levels. Results are expressed as percentage reduction in vascular volume compared to control.

Going from `COC(=O)Nc1nc2cc(Oc3cccc(N)c3)ccc2[nH]1` [Example 18, Methyl [5(6)-(3-aminophenoxy)-1H-benzimidazol-2yl]carbamate] to `COC(=O)Nc1nc2cc(Oc3cccc(O)c3)ccc2[nH]1` [Example 21, Methyl [5(6)-(3-hydroxyphenoxy)-1H-benzimxdazol-2yl]carbamate], the “% Reduction in vascular volume” value rises from 47% to 74%.

Compared with `COC(=O)Nc1nc2cc(Sc3ccc(N)cc3)ccc2[nH]1` [Example 4, Methyl [5(6)-(4-aminophenylthio)-1H-benzimidazol-2yl]carbamate], `COC(=O)Nc1nc2cc(Sc3ccc(O)cc3)ccc2[nH]1` [Example 12, Methyl [5(6)-(4-hydroxyphenylthio)-1H-benzimidazol-2yl]carbamate] is lower in “% Reduction in vascular volume” value: 53% for the first, 51% for the second.

Compared with `COC(=O)Nc1nc2cc(Sc3ccc(OP(=O)(O)O)cc3)ccc2[nH]1` [Example 3, Methyl [5(6)-(4-phosphonooxyphenylthio)-IH-benzimidazol-2yl]carbamate], `COC(=O)Nc1nc2cc(Oc3ccc(OP(=O)(O)O)cc3)ccc2[nH]1` [Example 14, Methyl [5(6)-(4-phosphonooxyphenoxy)-1H-benzimidazol-2yl]carbamate] is higher in “% Reduction in vascular volume” value: 22% for the first, 39% for the second.

First: COC(=O)Nc1nc2cc(Oc3ccc(NC(C)=O)cc3)ccc2[nH]1 [Example 16, Methyl [5(6)-(4-(acetylamino)phenoxy)-1H-benzimidazol-2yl]carbamate]
Second: COC(=O)Nc1nc2cc(Oc3ccc(O)cc3)ccc2[nH]1 [Example 19, Methyl [5(6)-(4-hydroxyphenoxy)-1H-benzimidazol-2yl]carbamate]
The “% Reduction in vascular volume” value of the first is lower: 56% for the first, 88% for the second.

Going from `COC(=O)Nc1nc2cc(Sc3ccc(NC(=O)[C@H](C)N)cc3)ccc2[nH]1` [Example 5, Methyl [5(6)-(4-alanylaminophenylthio)-IH-benzimidazol-2yl]carbamate] to `COC(=O)Nc1nc2cc(Oc3ccc(N)cc3)ccc2[nH]1` [Example 17, Methyl [5(6)-(4-aminophenoxy)-1H-benzimidazol-2yl]carbamate], the “% Reduction in vascular volume” value falls from 99% to 62%.

Going from `COC(=O)Nc1nc2cc(Oc3ccccc3O)ccc2[nH]1` [Example 20, Methyl [5(6)-(2-hydroxyphenoxy)-1H-benzimidazol-2yl]carbamate] to `COC(=O)Nc1nc2cc(C(=NO)c3ccc(O)cc3)ccc2[nH]1` [Example 15, Methyl [5(6)-(4-hydroxy-@-hydroxyiminobenzyl)-1H-benzimidazol-2yl]carbamate], the “% Reduction in vascular volume” value falls from 69% to 61%.

same assay, conditions: 100 mg/kg i.p., 6 h after drug treatment, compared to control

In the case of `CCCOc1ccc2[nH]c(NC(=O)OC)nc2c1` [Oxibendazole, reference compound], the “% Reduction in vascular volume” value was 43%.

same assay, conditions: 100 mg/kg i.p., 24 h after drug treatment, compared to control

In the case of `COC(=O)Nc1nc2cc(C(=O)c3cccs3)ccc2[nH]1` [Nocodazole, reference compound], the “% Reduction in vascular volume” value was 23%.

same assay, conditions: 500 mg/kg i.p., 6 h after drug treatment, compared to control

Compared with `COC(=O)Nc1nc2cc(C(=O)c3ccc(O)cc3)ccc2[nH]1` [Example 1, Methyl [5(6)-(4-hydroxybenzoyl)-IH-benzimidazol-2vl]carbamate], `COC(=O)Nc1nc2cc(C(=O)c3ccc(OP(=O)(O)O)cc3)ccc2[nH]1` [Example 2, Methyl [5(6)-(4-phosphonooxybenzoyl)-1H-benzimidazol-2yl]carbamate] is lower in “% Reduction in vascular volume” value: 81% for the first, 80% for the second.

Compared with `CCCSc1ccc2[nH]c(NC(=O)OC)nc2c1` [Albendazole, reference compound], `COC(=O)Nc1nc2cc(Sc3ccccc3)ccc2[nH]1` [Fenbendazole, reference compound] is lower in “% Reduction in vascular volume” value: 51% for the first, 44% for the second.

In the case of `COC(=O)Nc1nc2cc(C(=O)c3ccccc3)ccc2[nH]1` [Mebendazole, reference compound], the “% Reduction in vascular volume” value was 56%.

— patent US7875727B2, “Benzimidazole vascular damaging agents” (Angiogene Pharmaceuticals Ltd., priority 1999, dated 2011)
